Data: US20210386068A1, “COMPOSITIONS COMPRISING PYRIDINE CARBOXYLATE HERBICIDES AND VERY LONG CHAIN FATTY ACID (VLCFA) SYNTHESIS INHIBITOR HERBICIDES” (priority 2018, published 2021)

Experiments:
[1] = system: Kochia scoparia (kochia, KCHSC); test: Greenhouse postemergence herbicidal effect, visual injury 20-22 d after spraying, kochia (KCHSC); format: in vivo; settings: Anilofos or Pretilachlor 300 g/ha
Text: (§1) Seeds of the desired test plant species were planted in a 90:10% v/v (volume/volume) mixture of PRO-MIX® BX (Premier Tech Horticulture, Quakertown, Pa., USA) and PROFILE® GREENS GRADE™ (Profile Products LLC, Buffalo Grove, Ill., USA) planting mixture, which typically has a pH of 5.2 to 6.2 and an organic matter content of at least 50 percent, in plastic pots with a surface area of 103.2 square centimeters (cm^2). In some aspects, to ensure good germination and healthy plants, a fungicide treatment and/or other chemical or physical treatment was applied. The plants were grown for 7-36 days (d) in a greenhouse with an approximate 14-hour (h) photoperiod which was maintained at about 23° C. during the day and 22° C. during the night. Nutrients and water were added on a regular basis and supplemental lighting was provided with overhead metal halide 1000-Watt lamps as necessary. The plants were employed for testing when they reached the second or third true leaf stage.
(§2) Emulsifiable concentrates of each of each pyridine carboxylate herbicide (Compound A or Compound B) were prepared at 100 grams acid equivalent per liter (g ae/L). The emulsifiable concentrates also included a safener, cloquintocet-mexyl, at 120 grams active ingredient per liter (g ai/L). An aliquot of each emulsifiable concentrate was placed in a 25 mL glass vial and diluted with an aqueous mixture of 1.25% (v/v) ACTIROB® B esterified rapeseed oil (Bayer Crop Science, Research Triangle Park, N.C., USA) or MSO® Concentrate with LECI-TECH® methylated soybean oil (Loveland Products, Loveland, Colo., USA) to obtain concentrated stock solutions at the highest application rate for each herbicide, based upon a 12 milliliter (mL) application volume at a rate of 187 liters per hectare (L/ha). The concentrated stock solutions were further diluted with an aqueous mixture of 1.25% v/v ACTIROB® B or MSO® Concentrate with LECI-TECH® to obtain stock solutions at reduced application rates for each herbicide. Spray solutions of the herbicide combinations (Compound A or Compound B plus VLCFA synthesis inhibitor herbicide) were prepared by adding weighed amounts or aliquots of the VLCFA synthesis inhibitor herbicide to the stock solutions of Compound A or Compound B to form 12-mL spray solutions in two-way combinations.
(§3) The spray solutions were applied to the plant material with an overhead Mandel track sprayer equipped with 8002E nozzles calibrated to deliver 187 L/ha over an application area of 0.503 square meters (m^2) at a spray height of 18 inches ([…] (cm)) above the average plant canopy. Control plants were sprayed in the same manner with the solvent blank. All pyridine carboxylate herbicide (component a) application rates are given as “g ae/ha” and all VLCFA synthesis inhibitor herbicide (component b) application rates are given as “g ai/ha.”
(§4) The treated plants and control plants were placed in a greenhouse as described above and watered by sub-irrigation to prevent wash-off of the test compounds. After 20-22 d, the condition of the test plants as compared with that of the control plants was determined visually and scored on a scale of 0 to 100 percent where 0 corresponds to no injury and 100 corresponds to complete kill.

[2] = system: Lamium purpureum (purple deadnettle, LAMPU); test: Greenhouse postemergence herbicidal effect, visual injury 20-22 d after spraying, purple deadnettle (LAMPU); format: in vivo; settings: Anilofos or Pretilachlor 300 g/ha
Text: as §1, §2, §3, §4

[3] = system: Stellaria media (common chickweed, STEME); test: Greenhouse postemergence herbicidal effect, visual injury 20-22 d after spraying, common chickweed (STEME); format: in vivo; settings: Anilofos or Pretilachlor 300 g/ha
Text: as §1, §2, §3, §4

[4] = system: Veronica hederifolia (ivy-leaved speedwell, VERHE); test: Greenhouse postemergence herbicidal effect, visual injury 20-22 d after spraying, ivy-leaved speedwell (VERHE); format: in vivo; settings: Anilofos or Pretilachlor 300 g/ha
Text: as §1, §2, §3, §4

[5] = system: Anthemis arvensis (corn chamomile, ANTAR); test: Greenhouse postemergence herbicidal effect, visual injury 20-22 d after spraying, corn chamomile (ANTAR); format: in vivo; settings: Anilofos or Pretilachlor 300 g/ha
Text: as §1, §2, §3, §4

[6] = system: Viola arvensis (field pansy, VIOAR); test: Greenhouse postemergence herbicidal effect, visual injury 20-22 d after spraying, field pansy (VIOAR); format: in vivo; settings: Anilofos or Pretilachlor 300 g/ha
Text: as §1, §2, §3, §4

[7] = system: Cyanus segetum (cornflower, CENCY); test: Greenhouse postemergence herbicidal effect, visual injury 20-22 d after spraying, cornflower (CENCY); format: in vivo; settings: Anilofos or Pretilachlor 300 g/ha
Text: as §1, §2, §3, §4

[8] = system: Cirsium arvense (Canadian thistle, CIRAR); test: Greenhouse postemergence herbicidal effect, visual injury 20-22 d after spraying, Canadian thistle (CIRAR); format: in vivo; settings: for % visual injury CIRAR Obs: Anilofos or Pretilachlor 300 g/ha
Text: as §1, §2, §3, §4

[9] = system: Capsella bursa-pastoris (shepherd's purse, CAPBP); test: Greenhouse postemergence herbicidal effect, visual injury 20-22 d after spraying, shepherd's purse (CAPBP); format: in vivo; settings: Anilofos or Pretilachlor 300 g/ha
Text: as §1, §2, §3, §4

winter barley (HORVW) = test: Greenhouse postemergence crop phytotoxicity, visual injury 20-22 d after spraying, winter barley (HORVW); format: in vivo, Hordeum vulgare; settings: Anilofos or Pretilachlor 300 g/ha
Text: as §1, §2, §3, §4

[10] = system: Triticum aestivum (spring wheat, TRZAS); test: Greenhouse postemergence crop phytotoxicity, visual injury 20-22 d after spraying, spring wheat (TRZAS); format: in vivo; settings: Anilofos or Pretilachlor 300 g/ha
Text: as §1, §2, §3, §4

[11] = system: Papaver rhoeas (common poppy, PAPRH); test: Greenhouse postemergence herbicidal effect, visual injury 20-22 d after spraying, common poppy (PAPRH); format: in vivo; settings: Anilofos or Pretilachlor 300 g/ha
Text: as §1, §2, §3, §4

[12] = system: Viola tricolor (wild pansy, VIOTR); test: Greenhouse postemergence herbicidal effect, visual injury 20-22 d after spraying, wild pansy (VIOTR); format: in vivo; settings: for % visual injury VIOTR Obs: Anilofos or Pretilachlor 300 g/ha
Text: as §1, §2, §3, §4

[13] = system: Matricaria chamomilla (wild chamomile, MATCH); test: Greenhouse postemergence herbicidal effect, visual injury 20-22 d after spraying, wild chamomile (MATCH); format: in vivo; settings: Anilofos or Pretilachlor 300 g/ha
Text: as §1, §2, §3, §4

[14] = system: Polygonum convolvulus (wild buckwheat, POLCO); test: Greenhouse postemergence herbicidal effect, visual injury 20-22 d after spraying, wild buckwheat (POLCO); format: in vivo; settings: Anilofos or Pretilachlor 300 g/ha
Text: as §1, §2, §3, §4

winter wheat (TRZAW) = test: Greenhouse postemergence crop phytotoxicity, visual injury 20-22 d after spraying, winter wheat (TRZAW); format: in vivo, Triticum aestivum; settings: Anilofos or Pretilachlor 300 g/ha
Text: as §1, §2, §3, §4

[15] = system: Sinapis arvensis (wild mustard, SINAR); test: Greenhouse postemergence herbicidal effect, visual injury 20-22 d after spraying, wild mustard (SINAR); format: in vivo; settings: Anilofos or Pretilachlor 300 g/ha
Text: as §1, §2, §3, §4

[16] = system: Salsola kali (Russian thistle, SASKR); test: Greenhouse postemergence herbicidal effect, visual injury 20-22 d after spraying, Russian thistle (SASKR); format: in vivo; settings: Anilofos or Pretilachlor 300 g/ha
Text: as §1, §2, §3, §4

[17] = system: Hordeum vulgare (spring barley, HORVS); test: Greenhouse postemergence crop phytotoxicity, visual injury 20-22 d after spraying, spring barley (HORVS); format: in vivo; settings: Anilofos or Pretilachlor 300 g/ha
Text: as §1, §2, §3, §4

[18] = system: Matricaria inodora (scentless chamomile, MATIN); test: Greenhouse postemergence herbicidal effect, visual injury 20-22 d after spraying, scentless chamomile (MATIN); format: in vivo; settings: Anilofos or Pretilachlor 300 g/ha
Text: as §1, §2, §3, §4

[19] = system: Brassica napus (winter rape, BRSNW); test: Greenhouse postemergence herbicidal effect, visual injury 20-22 d after spraying, winter rape (BRSNW); format: in vivo; settings: Anilofos or Pretilachlor 300 g/ha
Text: as §1, §2, §3, §4

[20] = system: Matricaria discoidea (pineapple weed, MATMT); test: Greenhouse postemergence herbicidal effect, visual injury 20-22 d after spraying, pineapple weed (MATMT); format: in vivo; settings: Anilofos or Pretilachlor 300 g/ha
Text: as §1, §2, §3, §4

[21] = system: Veronica persica (Persian speedwell, VERPE); test: Greenhouse postemergence herbicidal effect, visual injury 20-22 d after spraying, Persian speedwell (VERPE); format: in vivo; settings: Anilofos or Pretilachlor 300 g/ha
Text: as §1, §2, §3, §4

[22] = system: Amaranthus retroflexus (pigweed, AMARE); test: Greenhouse postemergence herbicidal effect, visual injury 20-22 d after spraying, pigweed (AMARE); format: in vivo; settings: Flufenacet 60 g/ha alone
Text: as §1, §2, §3, §4

[23] = system: Abutilon theophrasti (velvetleaf, ABUTH); test: Greenhouse postemergence herbicidal effect, visual injury 20-22 d after spraying, velvetleaf (ABUTH); format: in vivo; settings: Flufenacet 60 g/ha alone
Text: as §1
(§5) Emulsifiable concentrates of each of each pyridine carboxylate herbicide (Compound A or Compound B) were prepared at 100 grams acid equivalent per liter (g ae/L). The emulsifiable concentrates also included a safener, cloquintocet-mexyl, at 120 grams active ingredient per liter (g ai/L). […]
as §4

[24] = system: Ipomoea hederacea (ivyleaf morningglory, IPOHE); test: Greenhouse postemergence herbicidal effect, visual injury 20-22 d after spraying, ivyleaf morningglory (IPOHE); format: in vivo; settings: Flufenacet 60 g/ha alone
Text: as §1, §5, §4

[25] = system: Helianthus annuus (common sunflower, HELAN); test: Greenhouse postemergence herbicidal effect, visual injury 20-22 d after spraying, common sunflower (HELAN); format: in vivo; settings: Flufenacet 60 g/ha alone
Text: as §1, §5, §4

SMILES | % visual injury KCHSC Obs [1] [%] | % visual injury LAMPU Obs [2] [%] | % visual injury STEME Obs [3] [%] | % visual injury VERHE Obs [4] [%] | % visual injury ANTAR Obs [5] [%] | % visual injury VIOAR Obs [6] [%] | % visual injury CENCY Obs [7] [%] | % visual injury CIRAR Obs [8] [%] | % visual injury CAPBP Obs [9] [%] | % visual injury HORVW Obs (winter barley (HORVW)) [%] | % visual injury TRZAS Obs [10] [%] | % visual injury PAPRH Obs [11] [%] | % visual injury VIOTR Obs [12] [%] | % visual injury MATCH Obs [13] [%] | % visual injury POLCO Obs [14] [%] | % visual injury TRZAW Obs (winter wheat (TRZAW)) [%] | % visual injury SINAR Obs [15] [%] | % visual injury SASKR Obs [16] [%] | % visual injury HORVS Obs [17] [%] | % visual injury MATIN Obs [18] [%] | other results
COP(=S)(OC)SCC(=O)N(c1ccc(Cl)cc1)C(C)C [Anilofos, S-[2-[(4-chlorophenyl)(1-methylethyl)amino]-2-oxoethyl] O,O-dimethyl phosphorodithioate] | 0 | 10 | 0 | 0 | 5 | 0 | 10 | 0 | 0 | 0 | 0 | 25 | 0 | 0 | 0 | 0 | 0 | 0 | 0 | 0 | % visual injury BRSNW Obs [19]: 5%; % visual injury MATMT Obs [20]: 0%; % visual injury VERPE Obs [21]: 5%
CC(C)N(C(=O)COc1nnc(C(F)(F)F)s1)c1ccc(F)cc1 [Flufenacet, N-(4-fluorophenyl)-N-(1-methylethyl)-2-[[5-(trifluoromethyl)-1,3,4-thiadiazol-2-yl]oxy]acetamide] | – | – | – | – | – | – | – | – | – | – | – | – | – | – | – | – | – | – | – | – | % visual injury Obs [22]: 5%; % visual injury Obs ([8]; CIRAR, Flufenacet 60 g/ha alone): 8%; % visual injury Obs ([12]; VIOTR, Flufenacet 60 g/ha alone): 0%; % visual injury Obs [23]: 3%; % visual injury Obs [24]: 5%; % visual injury Obs [25]: 15%
CCCOCCN(C(=O)CCl)c1c(CC)cccc1CC [Pretilachlor, 2-chloro-N-(2,6-diethylphenyl)-N-(2-propoxyethyl)acetamide] | 5 | 5 | 0 | 5 | 10 | 5 | 10 | 5 | 0 | 0 | 0 | 10 | 5 | 20 | 8 | 0 | 5 | 25 | 0 | 0 | % visual injury BRSNW Obs [19]: 5%; % visual injury MATMT Obs [20]: 13%; % visual injury VERVE Obs [21]: 10%
